From patent publication US11166948B2, “Pharmaceutical composition for treatment of aortic aneurysm” (National University Corporation Hamamatsu University School …, priority 2017, dated 2021)

Legend:
[1] = tested on: aortic wall hypoxia-induced rat AAA model; assay: Action of Compound 1 in aortic wall hypoxia-induced rat AAA model; format: in vivo; conditions: vs control group; for mortality due to rupture (non-rupture survival rate): day of operation to Day 28 post operation
Description: The action of Compound 1 in a rat AAA model (Non-Patent Document 3) induced by operation in which the aortic wall was separated from the surrounding tissue, a catheter was inserted, and then the abdominal aorta was ligated together with a catheter with a thread was studied.
In this test, Compound 1 was manufactured according to the method described in Patent Document 1, and mixed, in a proportion of 0.15%, with a normal diet (FR2, manufactured by Funabashi Farm Co., Ltd.), and the Compound 1-mixed diet was used.
Sprague-Dawley male rats (300 to 350 g: Japan SLC, Inc.) were used in the experiment. The rats were reared at room temperature of 25° C. ±1° C., and allowed to freely take the feed and water.
The model was created according to the method described in Non-Patent Document 3. Specifically, a rat AAA model was created by separating the rat aortic wall from the surrounding tissue, inserting a polyurethane catheter, and then ligating the abdominal aorta together with a plastic catheter with a monofilament thread, and inducing AAA.
The rat models were divided into two groups: a normal diet administration group (hereinafter referred to as “control group”) (n=20) and a 0.15% Compound 1-mixed diet administration group (hereinafter referred to as “Compound 1 group”) (n=20). The normal diet or Compound 1-mixed diet was freely fed in a period from one week before the AAA model creation operation (7 days before operation) to the end of the experiment.
In both the groups, up to 28 days post operation, the aneurysm diameter was measured by echo and comparison in survival was made.
In addition, the surviving animals were sacrificed after 28 days to analyze the AAA pathological tissue.
The AAA maximum short-axis diameter was measured with an ultrasonic diagnostic apparatus (Vevo770, manufactured by VisualSonics Inc.) on the day of operation and Day 7, Day 14, Day 21 and Day 28 post operation.
In the same models as in Example 1, the effect of Compound 1 on the formed AAA was studied.
Specifically, the administration of the Compound 1-mixed diet was started one week after the AAA model creation operation (7 days after operation) until the end of the experiment in this example, in place of one week before the AAA model creation operation (7 days before operation) until the end of the experiment in Example 1 (3). In addition, on Day 7 post operation, rats having an aortic aneurysm diameter of 3 mm or more were selected by measurement with an ultrasonic diagnostic apparatus (Vevo770, manufactured by VisualSonics Inc.), and then the rats were randomly divided into two groups: a normal diet administration group (hereinafter referred to as “control group”) (n=18) and a 0.15% Compound 1-mixed diet administration group (hereinafter referred to as “Compound 1 group”) (n=15). […]

[2] = tested on: elastase-induced model rats; conditions: preventive administration before AAA formation; cited from earlier work

Structure (SMILES): O=C(NCCCOc1ccc2[nH]c(=O)ccc2c1)N(C1CC1)[C@@H]1CCCC[C@H]1O [Compound 1, (−)-6-[3-[3-cyclopropyl-3-[(1R,2R)-2-hydroxycyclohexyl]ureido]propoxy]-2(1H)-quinolinone]
- aneurysm diameter (AAA maximum short-axis diameter) ([1]; Example 1: 0.15% Compound 1-mixed diet from 7 days before operation to end of experiment, echo up to Day 28 post operation, no significant difference): tendency toward suppression of the increase in the aneurysm diameter
- mortality due to rupture (non-rupture survival rate) ([1]; Example 1: 0.15% Compound 1-mixed diet from 7 days before operation, Log Rank p=0.036): significantly lower
- mortality due to rupture (non-rupture survival rate) ([1]; Example 2: 0.15% Compound 1-mixed diet from 7 days after operation (formed AAA), Log Rank p=0.055): lower
- aneurysm diameter (AAA maximum short-axis diameter) ([1]; Example 2: 0.15% Compound 1-mixed diet from 7 days after operation (formed AAA, diameter 3 mm or more), Day 7 to Day 14 post operation, p=0.014): significantly lower

Structure (SMILES): O=C1CCc2cc(OCCCCc3nnnn3C3CCCCC3)ccc2N1 [cilostazol]
- AAA dilatation [2]: suppresses AAA dilatation
